Reference: ChEMBL document CHEMBL3817755, “Design, synthesis and biological evaluation of indazolepyrimidine based derivatives as anticancer agents with anti-angiogenic and antiproliferative activities” (Medchemcomm, 2016)

Experiments:
Format in all cases: functional
K562 = test: Growth inhibition of human K562 cells at 10 uM after 48 hrs by SRB assay; conditions: K562, 48 h, read-out: GI
[1] = Growth inhibition of human MOLT4 cells at 10 uM after 48 hrs by SRB assay; conditions: MOLT-4, 48 h, read-out: GI
[2] = Growth inhibition of human RPMI8226 cells at 10 uM after 48 hrs by SRB assay; conditions: RPMI-8226, 48 h, read-out: GI
A549 = test: Growth inhibition of human A549/ATCC cells at 10 uM after 48 hrs by SRB assay; conditions: A549, 48 h, read-out: GI
EKVX = test: Growth inhibition of human EKVX cells at 10 uM after 48 hrs by SRB assay; conditions: read-out: GI
[3] = Growth inhibition of human HOP62 cells at 10 uM after 48 hrs by SRB assay; conditions: HOP-62, 48 h, read-out: GI
[4] = Growth inhibition of human HOP92 cells at 10 uM after 48 hrs by SRB assay; conditions: HOP-92, 48 h, read-out: GI
NCI-H226 = test: Growth inhibition of human NCI-H226 cells at 10 uM after 48 hrs by SRB assay; conditions: NCI-H226, 48 h, read-out: GI
NCI-H23 = test: Growth inhibition of human NCI-H23 cells at 10 uM after 48 hrs by SRB assay; conditions: NCI-H23, 48 h, read-out: GI
NCI-H522 = test: Growth inhibition of human NCI-H522 cells at 10 uM after 48 hrs by SRB assay; conditions: NCI-H522, 48 h, read-out: GI
[5] = Growth inhibition of human COLO205 cells at 10 uM after 48 hrs by SRB assay; conditions: COLO 205, 48 h, read-out: GI
[6] = Growth inhibition of human HCC2998 cells at 10 uM after 48 hrs by SRB assay; conditions: HCC 2998, 48 h, read-out: GI
[7] = Growth inhibition of human HCT116 cells at 10 uM after 48 hrs by SRB assay; conditions: HCT-116, 48 h, read-out: GI
[8] = Growth inhibition of human HCT15 cells at 10 uM after 48 hrs by SRB assay; conditions: HCT-15, 48 h, read-out: GI
HT-29 = test: Growth inhibition of human HT-29 cells at 10 uM after 48 hrs by SRB assay; conditions: HT-29, 48 h, read-out: GI
KM12 = test: Growth inhibition of human KM12 cells at 10 uM after 48 hrs by SRB assay; conditions: KM12, 48 h, read-out: GI
[9] = Growth inhibition of human SF268 cells at 10 uM after 48 hrs by SRB assay; conditions: SF-268, 48 h, read-out: GI
[10] = Growth inhibition of human SF295 cells at 10 uM after 48 hrs by SRB assay; conditions: SF-295, 48 h, read-out: GI
[11] = Growth inhibition of human SNB75 cells at 10 uM after 48 hrs by SRB assay; conditions: SNB-75, 48 h, read-out: GI
U-251 = test: Growth inhibition of human U251 cells at 10 uM after 48 hrs by SRB assay; conditions: U-251, 48 h, read-out: GI
Malme-3M = test: Growth inhibition of human MALME-3M cells at 10 uM after 48 hrs by SRB assay; conditions: read-out: GI
M14 = test: Growth inhibition of human M14 cells at 10 uM after 48 hrs by SRB assay; conditions: M14, 48 h, read-out: GI
MDA-MB-435 = test: Growth inhibition of human MDA-MB-435 cells at 10 uM after 48 hrs by SRB assay; conditions: MDA-MB-435, 48 h, read-out: GI
SK-MEL-28 = test: Growth inhibition of human SK-MEL-28 cells at 10 uM after 48 hrs by SRB assay; conditions: SK-MEL-28, 48 h, read-out: GI
[12] = Growth inhibition of human UACC62 cells at 10 uM after 48 hrs by SRB assay; conditions: UACC-62, 48 h, read-out: GI
[13] = Growth inhibition of human OVCAR3 cells at 10 uM after 48 hrs by SRB assay; conditions: OVCAR-3, 48 h, read-out: GI
[14] = Growth inhibition of human OVCAR4 cells at 10 uM after 48 hrs by SRB assay; conditions: OVCAR-4, 48 h, read-out: GI
[15] = Growth inhibition of human OVCAR5 cells at 10 uM after 48 hrs by SRB assay; conditions: OVCAR-5, 48 h, read-out: GI
[16] = Growth inhibition of human OVCAR8 cells at 10 uM after 48 hrs by SRB assay; conditions: OVCAR-8, 48 h, read-out: GI
[17] = Growth inhibition of human SKOV3 cells at 10 uM after 48 hrs by SRB assay; conditions: SK-OV-3, 48 h, read-out: GI
786-0 = test: Growth inhibition of human 786-0 cells at 10 uM after 48 hrs by SRB assay; conditions: 786-0, 48 h, read-out: GI
[18] = Growth inhibition of human RXF393 cells at 10 uM after 48 hrs by SRB assay; conditions: RXF 393, 48 h, read-out: GI
SN12C = test: Growth inhibition of human SN12C cells at 10 uM after 48 hrs by SRB assay; conditions: read-out: GI
[19] = Growth inhibition of human TK10 cells at 10 uM after 48 hrs by SRB assay; conditions: TK-10, 48 h, read-out: GI
[20] = Growth inhibition of human UO31 cells at 10 uM after 48 hrs by SRB assay; conditions: UO-31, 48 h, read-out: GI
[21] = Growth inhibition of human PC3 cells at 10 uM after 48 hrs by SRB assay; conditions: PC-3, 48 h, read-out: GI
MCF7 = test: Growth inhibition of human MCF7 cells at 10 uM after 48 hrs by SRB assay; conditions: MCF7, 48 h, read-out: GI
MDA-MB-231 = test: Growth inhibition of human MDA-MB-231 cells at 10 uM after 48 hrs by SRB assay; conditions: MDA-MB-231, 48 h, read-out: GI
[22] = Growth inhibition of human BT549 cells at 10 uM after 48 hrs by SRB assay; conditions: BT-549, 48 h, read-out: GI
T47D = test: Growth inhibition of human T47D cells at 10 uM after 48 hrs by SRB assay; conditions: read-out: GI
MDA-MB-468 = test: Growth inhibition of human MDA-MB-468 cells at 10 uM after 48 hrs by SRB assay; conditions: MDA-MB-468, 48 h, read-out: GI

Molecule COc1cccc(Nc2nccc(Nc3ccc4[nH]ncc4c3)n2)c1 has an inhibition of growth at 10 µM (K562) of 110%, an inhibition of growth at 10 µM [1] of 132% and an inhibition of growth at 10 µM [2] of 140%. For the same molecule, the inhibition of growth at 10 µM (A549) was 168%, the inhibition of growth at 10 µM (EKVX) was 66% and the inhibition of growth at 10 µM [3] was 111%. It also gave an inhibition of growth at 10 µM [4] of 111%, an inhibition of growth at 10 µM (NCI-H226) of 117% and an inhibition of growth at 10 µM (NCI-H23) of 129%. For the same molecule, the inhibition of growth at 10 µM (NCI-H522) was 168%, the inhibition of growth at 10 µM [5] was 188% and the inhibition of growth at 10 µM [6] was 107%. It also gave an inhibition of growth at 10 µM [7] of 187%, an inhibition of growth at 10 µM [8] of 127% and an inhibition of growth at 10 µM (HT-29) of 158%. For the same molecule, the inhibition of growth at 10 µM (KM12) was 144%, the inhibition of growth at 10 µM [9] was 74% and the inhibition of growth at 10 µM [10] was 84%. The inhibition of growth at 10 µM [11] was 70%, the inhibition of growth at 10 µM (U-251) was 194% and the inhibition of growth at 10 µM (Malme-3M) was 149%. For the same molecule, the inhibition of growth at 10 µM (M14) was 174%, the inhibition of growth at 10 µM (MDA-MB-435) was 178% and the inhibition of growth at 10 µM (SK-MEL-28) was 143%. It also gave an inhibition of growth at 10 µM [12] of 157%, an inhibition of growth at 10 µM [13] of 161% and an inhibition of growth at 10 µM [14] of 160%. The inhibition of growth at 10 µM [15] was 67%, the inhibition of growth at 10 µM [16] was 181% and the inhibition of growth at 10 µM [17] was 85%. For the same molecule, the inhibition of growth at 10 µM (786-0) was 112%, the inhibition of growth at 10 µM [18] was 82% and the inhibition of growth at 10 µM (SN12C) was 80%. The inhibition of growth at 10 µM [19] was 178%, the inhibition of growth at 10 µM [20] was 162% and the inhibition of growth at 10 µM [21] was 181%. For the same molecule, the inhibition of growth at 10 µM (MCF7) was 151%, the inhibition of growth at 10 µM (MDA-MB-231) was 85% and the inhibition of growth at 10 µM [22] was 116%. The inhibition of growth at 10 µM (T47D) was 152% and the inhibition of growth at 10 µM (MDA-MB-468) was 145%.
